In the supplement of paper PMC8024199:
± gives the standard deviation of the averaged measurements.

Columns and labels:
Assay in all cases: drug sensitivity score (DSS) (DSS score); higher = more sensitive (stronger growth inhibition); extreme values may be limits of the assay
[1] = system: Ba/F3 P210-BCR-ABL1 RUNX1wt/wt control (mouse)
In short: (§1)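 Mouse Ba/F3 cells, either CRISPR/Cas9-edited at a target exon or edited-control clones, were screened against a 528-compound library on pre-printed 384-well plates. Each compound was tested at five concentrations across a 10,000-fold range, with 10,000 cells per well in RPMI with 10% FBS for 72 h at 37 °C and 5% CO2. CellTiter-Glo luminescence was scaled between vehicle and positive-control wells, and each dose-response was summarised as a drug sensitivity score. Scores were averaged over two replicates.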

[2] = system: Ba/F3 P210-BCR-ABL1 RUNX1-/mut (mouse)
In short: as §1

[3] = system: Ba/F3 P210-BCR-ABL1 RUNX1-/- (mouse)
In short: as §1

Row | SMILES | drug sensitivity score [1] | drug sensitivity score [2] | drug sensitivity score [3]
1 | Nc1ccn([C@@H]2O[C@H](CO)[C@@H](O)[C@@H]2O)c(=O)n1 [Cytarabine] | 6.25 ± 0.071 | 8.25 ± 4 | 12.25 ± 0.071
2 | C[C@@H]1COCCN1c1cc(C2([S@](C)(=N)=O)CC2)nc(-c2cc[nH]c3nccc2-3)n1 [AZD6738] | 18 ± 0.57 | 19.2 ± 0.71 | 20.1 ± 1.4
3 | O=C(Nc1nc2cccc(-c3ccc(CN4CCS(=O)(=O)CC4)cc3)n2n1)C1CC1 [Filgotinib] | 0 | 1.8 ± 2.5 | 1.5 ± 1.7
4 | CCN(CC)CCCC(C)Nc1c2ccc(Cl)cc2nc2ccc(OC)cc12 (centres undefined) [Mepacrine] | 5.4 | 19.7 ± 1.4 | 18.6 ± 2.2
5 | CC(=O)c1cnc2ccc(-c3cc(Cl)c(O)c(Cl)c3)nc2c1N[C@H]1CC[C@H](CN(C)C)CC1 [OTS167] | 17 ± 0.42 | 20.4 ± 0.92 | 22.1 ± 0.78
6 | CCN(CC)CCOc1ccc(C(=C(Cl)c2ccccc2)c2ccccc2)cc1 [Clomifene] | 6.35 ± 0.49 | 8 ± 1.3 | 6.5 ± 0.28
7 | COc1ccc(Cn2ccc3ccc(C(=O)NO)cc32)cc1 | 0 | 4.25 ± 0.78 | 3.15 ± 1.6
8 | COc1cccc(OCCCN)c1-c1cc(Nc2cnc(C#N)cn2)n[nH]1 [Prexasertib] | 30.4 ± 1.3 | 31.4 | 32.5 ± 2.5
9 | O=c1ncn2nc(Sc3ccc(F)cc3F)ccc2c1-c1c(Cl)cccc1Cl [Neflamapimod] | 0 | 0.85 ± 1.2 | 1.9 ± 0.71
10 | CCC(C)n1ncn(-c2ccc(N3CCN(c4ccc(OCC5COC(Cn6cncn6)(c6ccc(Cl)cc6Cl)O5)cc4)CC3)cc2)c1=O (centres undefined) [Itraconazole] | 7.1 ± 1.3 | 4.6 ± 6.5 | 3.8 ± 5.4
11 | CC(C)(C)c1cc(NC(=O)Nc2ccc(Oc3ccnc4[nH]c(=O)cnc34)cc2F)n(-c2ccccc2)n1 | 17.4 ± 0.21 | 20.9 ± 0.49 | 25.9 ± 0.78
12 | CN(C)CCOc1ccc(/C(=C(/CCCl)c2ccccc2)c2ccccc2)cc1 [Toremifene] | 4.85 ± 0.35 | 6.9 ± 2.7 | 5.9 ± 1.7
13 | CN(C)Cc1ccc(S(=O)(=O)n2ccc(/C=C/C(=O)NO)c2)cc1 [Resminostat] | 13.1 ± 0.57 | 15.2 ± 0.92 | 15.8 ± 0.78
14 | CC(C)c1cc(C(=O)N2Cc3ccc(CN4CCN(C)CC4)cc3C2)c(O)cc1O [Onalespib] | 14.6 ± 0.21 | 17.8 ± 1.1 | 19.1 ± 2.9
15 | CC(C)C[C@H](NC(=O)CNC(=O)c1cc(Cl)ccc1Cl)B(O)O [Ixazomib] | 13.7 ± 1.4 | 8.95 ± 1.2 | 13.5 ± 2.4
16 | CN(CC(=O)N(Cc1ccc(C2CCCCC2)cc1)c1ccc(C(=O)O)cc1)S(=O)(=O)c1c(F)c(F)c(F)c(F)c1F [SH-4-54] | 5.1 ± 0.14 | 8.35 ± 5.2 | 8.95 ± 1.1
17 | Cn1cc(CNCC2CCN(c3ncc(C(=O)NO)cn3)CC2)c2ccccc21 [Quisinostat] | 15.3 ± 0.28 | 17.95 ± 0.071 | 21.6 ± 1.3
18 | COc1cc2nccc(Oc3ccc(NC(=O)C4(C(=O)Nc5ccc(F)cc5)CC4)cc3)c2cc1OC [Cabozantinib] | 0 | 1.8 ± 1.6 | 4.8 ± 0.85
19 | O=C(CCNC(=O)c1ccc(OC(F)(F)F)cc1)N[C@@H]1CCCc2ccccc21 [ML390] | 12.4 ± 0.49 | 19.6 ± 0.92 | 18.55 ± 0.071
20 | Cc1ccc(C(=O)Nc2cccc(C(F)(F)F)c2)cc1Nc1nc(-c2cccnc2)nc2c1cnn2C [NVP-BHG712] | 5.4 ± 0.42 | 5.15 ± 0.071 | 7.45 ± 0.35
21 | O=C(CCCCCCC(=O)Nc1ccc([C@H]2O[C@@H](CSc3nc(-c4ccccc4)c(-c4ccccc4)o3)C[C@@H](c3ccc(CO)cc3)O2)cc1)NO [Tubacin] | 4.35 ± 0.78 | 6.2 ± 0.28 | 6.45 ± 1.2
22 | N#CC1(c2ccc(NC(=O)c3cccnc3NCc3ccncc3)cc2)CCCC1 [Apatinib] | 0 | 0 | 0.4 ± 0.57
23 | C[C@@H](Nc1cc(F)cc(F)c1)c1cc(C(=O)N(C)C)cc2c(=O)cc(N3CCOCC3)oc12 [AZD-8186] | 0 | 0.5 ± 0.71 | 0
24 | NC(=O)/C(=C/n1cnc(-c2cc(C(F)(F)F)cc(C(F)(F)F)c2)n1)c1cncnc1 [Eltanexor] | 19.8 ± 0.99 | 27.2 ± 0.35 | 27.8 ± 0.14

Row | SMILES | drug sensitivity score [1] | drug sensitivity score [2] | drug sensitivity score [3]
25 | CCc1cc2c(cc1N1CCC(N3CCOCC3)CC1)C(C)(C)c1[nH]c3cc(C#N)ccc3c1C2=O [Alectinib] | 0 | 0.7 ± 0.99 | 1.05 ± 0.35
26 | Cc1cc(Nc2cc(CN3CCOCC3)c3nc(C)c(Cc4ccc(Cl)cc4F)n3n2)n[nH]1 [Gandotinib] | 2.35 ± 0.21 | 4.9 ± 1.6 | 4.8 ± 0.71
27 | O=C(Nc1ccc2[nH]nc(-c3ccncc3)c2c1)[C@@H]1CCN(CC(=O)N2CCN(c3ccc(-c4ncccn4)cc3)CC2)C1 | 5.1 ± 1.3 | 10.7 ± 1.4 | 17.8 ± 1.6
28 | C/C=C1\NC(=O)[C@H]2CSSCC/C=C/[C@H](CC(=O)N[C@H](C(C)C)C(=O)N2)OC(=O)[C@H](C(C)C)NC1=O [Romidepsin] | 29.4 ± 0.42 | 27.6 ± 2.7 | 29.85 ± 0.071
29 | CC1(C)CC[C@]2(NC(=O)C(C)(F)F)CC[C@]3(C)[C@H](C(=O)C=C4[C@@]5(C)C=C(C#N)C(=O)C(C)(C)[C@@H]5CC[C@]43C)[C@@H]2C1 [Omaveloxolone] | 17.2 ± 0.14 | 22.4 ± 0.78 | 22.9 ± 0.28
30 | CN(C)CCCOc1ccc(-c2ccc3ncc4c(c3c2)n(C2CCOCC2)c(=O)n4C)cn1 [AZD0156] | 0 | 7.6 ± 0.14 | 6.8 ± 1.7
31 | CC1(C)OCCn2c1nc1c(N3CCOCC3)nc(-c3cnc(N)nc3)nc12 [GDC-0084] | 4.8 | 10.3 ± 0.85 | 9.3 ± 0.14
32 | CC/C(=C(\c1ccccc1)c1ccc(OCCN(C)C)cc1)c1ccccc1 [Tamoxifen] | 3.5 ± 0.28 | 7.5 ± 1.3 | 6.2 ± 1.6
33 | CCc1cnn2c(NCc3ccc[n+]([O-])c3)cc(N3CCCC[C@H]3CCO)nc12 [Dinaciclib] | 18.6 ± 0.78 | 19.9 ± 0.35 | 19.6 ± 2.3
34 | CC(C)N(CCCNC(=O)Nc1ccc(C(C)(C)C)cc1)C[C@H]1O[C@@H](n2cc(Br)c3c(N)ncnc32)[C@H](O)[C@@H]1O [SGC0946] | 0 | 3.7 ± 5.2 | 3.45 ± 2.3
35 | CCN(c1cc(-c2ccc(CN3CCOCC3)cc2)cc(C(=O)NCc2c(C)cc(C)[nH]c2=O)c1C)C1CCOCC1 [Tazemetostat] | 0 | 0.25 ± 0.35 | 0.45 ± 0.64
36 | NC(=S)N/N=C/c1ncccc1N [Triapine] | 4.65 ± 0.071 | 5.05 ± 0.071 | 5.6 ± 0.28
37 | CCc1cncnc1N1CCN(Cc2nc3ccc(C(F)(F)F)cc3[nH]2)CC1 | 0 | 0.8 ± 1.1 | 2 ± 1.1
38 | O=C(O)c1ccc(CN2CCC(CN[C@@H]3C[C@H]3c3ccccc3)CC2)cc1 | 0 | 0 | 1.1 ± 1.1
39 | COc1cc2ncnc(Oc3cccc(NC(=O)Nc4cc(C(C)(C)C(F)(F)F)on4)c3)c2cc1OC | 21.6 ± 0.49 | 13.2 ± 19 | 15.8 ± 22
40 | CC(C)NC[C@@H](C(=O)N1CCN(c2ncnc3c2[C@H](C)C[C@H]3O)CC1)c1ccc(Cl)cc1 [Ipatasertib] | 0.3 ± 0.42 | 3.4 ± 2.7 | 4.75 ± 0.92
41 | COCC1(CO)C(=O)C2CCN1CC2 (centres undefined) [APR-246] | 0.35 ± 0.49 | 1.4 ± 2 | 1.05 ± 1.5
42 | COc1cc2c(NC3CCN(C(C)C)CC3)nc(C3CCCCC3)nc2cc1OCCCN1CCCC1 [UNC0638] | 1.45 ± 0.64 | 7.75 ± 2 | 9.2 ± 0.57
43 | COc1cc2nccc(Oc3ccc(NC(=O)NC4CC4)c(Cl)c3)c2cc1C(N)=O [Lenvatinib] | 0 | 0.4 ± 0.57 | 2.7 ± 1.1
44 | CCS(=O)(=O)N1CCN(c2ccc(Nc3ncc(C(N)=O)c(NC4CC4)n3)cc2)CC1 [Cerdulatinib] | 9.5 ± 0.42 | 13.1 ± 1.6 | 14.8 ± 0.64
45 | Cc1c(-c2ccc(N3CCc4cccc(C(=O)Nc5nc6ccccc6s5)c4C3)nc2C(=O)O)cnn1CC12CC3CC(CC(C3)C1)C2 | 0 | 0 | 0
46 | CCS(=O)(=O)N1CC(CC#N)(n2cc(-c3ncnc4[nH]ccc34)cn2)C1 [Baricitinib] | 0 | 0 | 0
47 | CN1CCc2c(c3ccccc3n2Cc2ccc(C(=O)NO)cc2)C1 [Tubastatin A] | 0 | 3.6 | 4.05 ± 0.64
48 | O=S(=O)(c1cccc2c(O)nccc12)N1CCCNCC1 [Hydroxyfasudil] | 0.2 ± 0.28 | 0.4 ± 0.57 | 0.15 ± 0.21
